Read-outs that look alike come from different tables or passages of the source.
Experiments:
Experiment in all cases: KinomeScan kinase panel, single concentration 10 µM
Format in all cases: binding
KinomeScan kinase panel [1] = molecular target: T1, KinomeScan kinase panel (Homo sapiens, UniProt P52333); conditions: 10 µM, read-out: score (%)
T1 construct: purchased DiscoveRx (KinomeScan)
T1 sequence (P52333 1-1124): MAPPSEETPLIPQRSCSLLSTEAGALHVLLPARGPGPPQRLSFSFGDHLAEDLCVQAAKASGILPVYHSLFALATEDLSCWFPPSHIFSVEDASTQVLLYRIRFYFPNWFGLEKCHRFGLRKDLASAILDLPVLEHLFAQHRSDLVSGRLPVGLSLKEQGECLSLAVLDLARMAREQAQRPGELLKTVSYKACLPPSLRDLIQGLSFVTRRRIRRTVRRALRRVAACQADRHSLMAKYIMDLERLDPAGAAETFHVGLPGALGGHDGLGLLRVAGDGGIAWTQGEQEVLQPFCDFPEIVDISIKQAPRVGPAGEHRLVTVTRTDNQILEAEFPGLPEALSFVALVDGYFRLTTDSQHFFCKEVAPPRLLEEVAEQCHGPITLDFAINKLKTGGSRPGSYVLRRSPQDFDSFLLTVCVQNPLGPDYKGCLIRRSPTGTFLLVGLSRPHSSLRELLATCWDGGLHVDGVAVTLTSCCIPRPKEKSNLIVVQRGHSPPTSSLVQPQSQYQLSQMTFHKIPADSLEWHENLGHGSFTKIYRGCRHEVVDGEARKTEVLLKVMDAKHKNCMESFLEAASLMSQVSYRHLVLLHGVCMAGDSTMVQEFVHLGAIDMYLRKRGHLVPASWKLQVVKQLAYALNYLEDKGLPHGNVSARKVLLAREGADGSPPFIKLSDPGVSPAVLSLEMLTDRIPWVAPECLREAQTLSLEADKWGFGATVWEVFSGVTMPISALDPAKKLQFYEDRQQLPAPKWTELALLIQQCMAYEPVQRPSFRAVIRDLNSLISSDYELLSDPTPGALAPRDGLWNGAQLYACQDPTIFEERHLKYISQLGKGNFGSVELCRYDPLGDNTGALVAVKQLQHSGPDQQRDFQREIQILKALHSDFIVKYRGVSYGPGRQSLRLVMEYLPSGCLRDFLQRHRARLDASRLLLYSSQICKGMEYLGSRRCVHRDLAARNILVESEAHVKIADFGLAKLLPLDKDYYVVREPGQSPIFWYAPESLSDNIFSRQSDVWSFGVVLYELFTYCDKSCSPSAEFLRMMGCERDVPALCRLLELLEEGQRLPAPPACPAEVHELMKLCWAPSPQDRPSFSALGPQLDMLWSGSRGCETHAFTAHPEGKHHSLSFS

KinomeScan kinase panel [2] = molecular target: T2, KinomeScan kinase panel (Homo sapiens, UniProt O00444); conditions: read-out: score (%)
T2 construct: purchased DiscoveRx (KinomeScan)
T2 sequence (O00444 1-970): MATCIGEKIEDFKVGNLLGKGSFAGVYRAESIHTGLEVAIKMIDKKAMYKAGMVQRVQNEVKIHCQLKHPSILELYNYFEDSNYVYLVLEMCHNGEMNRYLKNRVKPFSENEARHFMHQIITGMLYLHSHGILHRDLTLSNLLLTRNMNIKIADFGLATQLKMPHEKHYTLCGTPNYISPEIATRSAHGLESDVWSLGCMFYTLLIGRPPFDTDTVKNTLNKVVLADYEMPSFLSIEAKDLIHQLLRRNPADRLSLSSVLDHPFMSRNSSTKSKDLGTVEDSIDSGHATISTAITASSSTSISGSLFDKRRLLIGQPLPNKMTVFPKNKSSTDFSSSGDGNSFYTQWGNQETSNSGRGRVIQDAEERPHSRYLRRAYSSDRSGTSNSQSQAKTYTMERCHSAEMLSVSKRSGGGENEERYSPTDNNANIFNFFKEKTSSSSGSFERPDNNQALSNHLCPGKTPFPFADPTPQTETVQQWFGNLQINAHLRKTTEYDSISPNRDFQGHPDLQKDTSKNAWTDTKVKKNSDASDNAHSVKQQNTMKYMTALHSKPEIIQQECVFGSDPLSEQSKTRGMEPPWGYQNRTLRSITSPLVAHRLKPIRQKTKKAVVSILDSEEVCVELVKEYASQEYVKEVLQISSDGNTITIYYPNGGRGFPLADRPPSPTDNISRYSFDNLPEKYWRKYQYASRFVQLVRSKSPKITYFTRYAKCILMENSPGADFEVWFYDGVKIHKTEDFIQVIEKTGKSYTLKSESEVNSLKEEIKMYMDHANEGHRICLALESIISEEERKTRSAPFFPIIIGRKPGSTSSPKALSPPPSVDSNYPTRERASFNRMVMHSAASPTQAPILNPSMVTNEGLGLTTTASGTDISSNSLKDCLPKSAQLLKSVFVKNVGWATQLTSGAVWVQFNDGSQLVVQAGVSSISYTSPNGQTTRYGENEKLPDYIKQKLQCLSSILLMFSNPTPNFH

KinomeScan kinase panel [3] = molecular target: T3, KinomeScan kinase panel (Homo sapiens, UniProt Q9UKE5); conditions: 10 µM, read-out: score (%)
T3 construct: purchased DiscoveRx (KinomeScan)

KinomeScan kinase panel [4] = molecular target: T4, KinomeScan kinase panel (Homo sapiens, UniProt Q9BRS2); conditions: read-out: score (%)
T4 construct: purchased DiscoveRx (KinomeScan)
T4 sequence (Q9BRS2 1-568): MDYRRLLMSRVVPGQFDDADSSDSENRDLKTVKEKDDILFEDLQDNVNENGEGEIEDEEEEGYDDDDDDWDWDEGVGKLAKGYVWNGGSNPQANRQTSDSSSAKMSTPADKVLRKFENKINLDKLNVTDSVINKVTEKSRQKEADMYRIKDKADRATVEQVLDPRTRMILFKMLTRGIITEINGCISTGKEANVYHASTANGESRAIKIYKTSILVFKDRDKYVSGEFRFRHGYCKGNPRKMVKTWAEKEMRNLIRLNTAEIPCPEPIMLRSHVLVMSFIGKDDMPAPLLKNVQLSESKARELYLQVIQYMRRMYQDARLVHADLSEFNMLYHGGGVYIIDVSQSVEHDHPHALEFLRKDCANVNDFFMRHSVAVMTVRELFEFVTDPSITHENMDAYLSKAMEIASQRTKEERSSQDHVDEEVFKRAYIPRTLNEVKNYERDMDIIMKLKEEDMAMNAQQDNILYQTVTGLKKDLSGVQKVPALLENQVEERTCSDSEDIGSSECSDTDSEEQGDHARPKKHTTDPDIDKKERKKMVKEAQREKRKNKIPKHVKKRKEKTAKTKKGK

KinomeScan kinase panel [5] = molecular target: T5, KinomeScan kinase panel (Homo sapiens, UniProt Q9Y6E0); conditions: MST3, 10 µM
T5 construct: purchased DiscoveRx (KinomeScan)

KinomeScan kinase panel [6] = molecular target: T6, KinomeScan kinase panel (Homo sapiens, UniProt P24723); conditions: 10 µM, read-out: score (%)
T6 construct: purchased DiscoveRx (KinomeScan)
T6 sequence (P24723 whole entry): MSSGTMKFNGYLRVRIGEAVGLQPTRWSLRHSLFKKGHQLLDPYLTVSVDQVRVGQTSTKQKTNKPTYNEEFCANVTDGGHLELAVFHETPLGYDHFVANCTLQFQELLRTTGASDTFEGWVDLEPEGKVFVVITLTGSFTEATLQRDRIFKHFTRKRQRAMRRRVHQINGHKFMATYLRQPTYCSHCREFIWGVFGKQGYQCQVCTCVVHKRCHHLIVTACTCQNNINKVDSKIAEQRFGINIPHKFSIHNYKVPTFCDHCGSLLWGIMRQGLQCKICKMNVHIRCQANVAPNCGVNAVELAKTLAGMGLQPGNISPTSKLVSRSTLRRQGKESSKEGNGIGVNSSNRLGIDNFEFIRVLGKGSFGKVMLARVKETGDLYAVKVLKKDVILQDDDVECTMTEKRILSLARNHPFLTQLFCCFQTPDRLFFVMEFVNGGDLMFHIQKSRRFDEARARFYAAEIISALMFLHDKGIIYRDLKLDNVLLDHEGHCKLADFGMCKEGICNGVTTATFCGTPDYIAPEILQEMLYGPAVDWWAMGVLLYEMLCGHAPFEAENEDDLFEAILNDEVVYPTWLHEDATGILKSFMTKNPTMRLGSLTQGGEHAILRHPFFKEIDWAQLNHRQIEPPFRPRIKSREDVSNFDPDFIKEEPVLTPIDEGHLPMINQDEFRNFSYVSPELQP

T5 sequence (Q9Y6E0 whole entry): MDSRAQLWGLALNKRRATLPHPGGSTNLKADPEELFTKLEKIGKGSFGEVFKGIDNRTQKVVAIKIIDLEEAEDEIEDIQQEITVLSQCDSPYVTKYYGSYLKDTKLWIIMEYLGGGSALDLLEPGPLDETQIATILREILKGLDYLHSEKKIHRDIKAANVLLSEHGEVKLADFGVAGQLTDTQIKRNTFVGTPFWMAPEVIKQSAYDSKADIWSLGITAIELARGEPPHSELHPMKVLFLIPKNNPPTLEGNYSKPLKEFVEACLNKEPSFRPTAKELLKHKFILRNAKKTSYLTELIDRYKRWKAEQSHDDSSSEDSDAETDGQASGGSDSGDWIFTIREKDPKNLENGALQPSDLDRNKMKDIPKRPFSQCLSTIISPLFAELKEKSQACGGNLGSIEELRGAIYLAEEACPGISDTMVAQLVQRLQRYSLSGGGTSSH
T3 sequence (Q9UKE5 whole entry): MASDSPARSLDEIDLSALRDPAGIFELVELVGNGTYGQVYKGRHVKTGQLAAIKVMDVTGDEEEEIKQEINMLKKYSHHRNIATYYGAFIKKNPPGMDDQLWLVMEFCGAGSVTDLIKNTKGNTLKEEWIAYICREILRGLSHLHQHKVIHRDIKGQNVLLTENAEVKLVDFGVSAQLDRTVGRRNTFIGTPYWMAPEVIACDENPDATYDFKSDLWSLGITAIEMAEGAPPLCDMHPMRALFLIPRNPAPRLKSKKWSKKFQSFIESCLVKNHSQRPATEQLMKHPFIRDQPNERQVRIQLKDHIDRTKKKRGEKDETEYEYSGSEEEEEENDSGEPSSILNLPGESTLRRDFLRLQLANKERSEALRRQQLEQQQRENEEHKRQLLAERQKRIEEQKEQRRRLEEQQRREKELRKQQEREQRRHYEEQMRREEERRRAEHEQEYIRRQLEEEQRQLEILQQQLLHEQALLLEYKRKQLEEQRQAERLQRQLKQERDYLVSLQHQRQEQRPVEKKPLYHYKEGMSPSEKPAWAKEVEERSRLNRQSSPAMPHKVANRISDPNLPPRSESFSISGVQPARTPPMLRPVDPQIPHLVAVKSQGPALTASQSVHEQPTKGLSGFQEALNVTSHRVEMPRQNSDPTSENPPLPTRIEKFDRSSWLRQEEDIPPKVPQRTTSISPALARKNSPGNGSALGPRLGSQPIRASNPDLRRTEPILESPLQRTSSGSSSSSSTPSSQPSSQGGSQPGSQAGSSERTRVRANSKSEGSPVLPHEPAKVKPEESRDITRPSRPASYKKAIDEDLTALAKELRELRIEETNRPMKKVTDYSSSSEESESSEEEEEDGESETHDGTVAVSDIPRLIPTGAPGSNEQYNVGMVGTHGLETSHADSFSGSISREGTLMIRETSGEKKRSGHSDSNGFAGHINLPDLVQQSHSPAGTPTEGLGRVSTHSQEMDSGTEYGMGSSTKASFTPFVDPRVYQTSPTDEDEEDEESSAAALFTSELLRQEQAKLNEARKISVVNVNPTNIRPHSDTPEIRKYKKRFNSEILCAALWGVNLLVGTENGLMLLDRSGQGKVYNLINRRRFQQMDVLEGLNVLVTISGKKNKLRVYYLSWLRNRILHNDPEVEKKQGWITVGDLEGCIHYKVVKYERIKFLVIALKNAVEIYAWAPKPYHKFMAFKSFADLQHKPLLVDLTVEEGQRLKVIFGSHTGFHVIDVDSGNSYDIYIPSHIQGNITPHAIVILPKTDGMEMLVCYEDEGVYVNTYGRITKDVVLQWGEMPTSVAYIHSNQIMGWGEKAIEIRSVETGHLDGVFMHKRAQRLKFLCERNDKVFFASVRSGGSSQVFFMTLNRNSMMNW

CCN1CCN(Cc2ccc(NC(=O)c3ccc(C)c(NC(=O)c4cncc(-c5cccs5)c4)c3)cc2C(F)(F)F)CC1 [ALW-II-41-27]
remaining binding at 10 µM (KinomeScan kinase panel [1]; JAK3(JH1domain-catalytic)): 3.7% | remaining binding at 10 µM (KinomeScan kinase panel [2]; PLK4, 10 µM): > 30% | remaining binding at 10 µM (KinomeScan kinase panel [3]; kinase TNIK): 11% | remaining binding at 10 µM (KinomeScan kinase panel [4]; RIOK1, 10 µM): > 30% | score (%) (KinomeScan kinase panel [5]): nb (Hits values higher than 30% were considered negative (no binding: nb)) | remaining binding at 10 µM (KinomeScan kinase panel [6]; PRKCH): 4.6%

CCN1CCN(Cc2ccc(NC(=O)c3ccc(C)c(/C=C/c4cnc5[nH]ccc5c4Cl)c3)cc2C(F)(F)F)CC1 [HG-6-63-01, (E)-3-(2-(4-chloro-1H-pyrrolo[2,3-b]pyridin-5-yl)vinyl)-N-(4-((4-ethylpiperazin-1-yl)methyl)-3-(trifluoromethyl)phenyl)-4-methylbenzamide]
remaining binding at 10 µM (KinomeScan kinase panel [1]; JAK3(Kin.Dom.2)): 3.5% | remaining binding at 10 µM (KinomeScan kinase panel [2]; PLK4, 10 µM): > 30% | remaining binding at 10 µM (KinomeScan kinase panel [3]; TNIK): 13% | remaining binding at 10 µM (KinomeScan kinase panel [4]; RIOK1, 10 µM): 0.2% | score (%) (KinomeScan kinase panel [5]): nb (Hits values higher than 30% were considered negative (no binding: nb)) | remaining binding at 10 µM (KinomeScan kinase panel [6]; PRKCH): > 30%

CCN1CCN(Cc2ccc(NC(=O)c3ccc(C)c(C#Cc4cccnc4)c3)cc2C(F)(F)F)CC1 [XMD15-44]
remaining binding at 10 µM (KinomeScan kinase panel [1]; JAK3(JH1domain-catalytic)): 2.3% | remaining binding at 10 µM (KinomeScan kinase panel [2]; kinase PLK4, 10 µM): 88% | remaining binding at 10 µM (KinomeScan kinase panel [3]; kinase TNIK): 1.8% | remaining binding at 10 µM (KinomeScan kinase panel [4]; kinase RIOK1, 10 µM): 90% | score (%) (KinomeScan kinase panel [5]): 2.8% | remaining binding at 10 µM (KinomeScan kinase panel [6]; kinase PRKCH): 67%
